Active and inactive are the calls of the source. The rule behind the calls is not given here.
Columns and labels:
[1] = Selectivity index, ratio of IC50 for human serum BChE to IC50 for Electric eel AChE
[2] = Antioxidant activity assessed as DPPH radical scavenging activity at 10 uM after 30 mins under dark condition relative to control; format: functional
Acetylcholinesterase [3] = biological target: T1, Acetylcholinesterase (Electrophorus electricus, UniProt O42275); experiment: Inhibition of Electric eel AChE using acetylthiocholine iodide as substrate after 10 mins measured for every mins by Ellman's method
Cholinesterase = Cholinesterase (Homo sapiens, UniProt P06276); experiment: Inhibition of human serum BChE using butyrylthiocholine iodide as substrate after 10 mins measured for every mins by Ellman's method
[4] = Effective permeability of the compound by PAMPA; format: ADME; settings: read-out: Peff
in vitro = settings: PAMPA, pH 7.4
Description: Effective permeability of the compound at pH 7.4 after 18 hrs by PAMPA-BBB assay

Mus musculus [5] = experiment: Cognitive enhancing effect in Swiss albino mouse assessed as reversal of scopolamine-induced reduction in spontaneous alteration score at 5 mg/kg, ip qd pretreated for 1 hr followed by scopolamine addition by Y-maze test; format: functional, organism-based
Mus musculus [6] = experiment: Cognitive enhancing effect in Swiss albino mouse assessed as reversal of scopolamine-induced anxiety by measuring increase in number of novel arm entries at 1 to 20 mg/kg, ip qd pretreated for 1 hr followed by scopolamine addition by Y-maze test; format: functional, organism-based
[7] = Acute toxicity in Swiss albino mouse assessed as mortality at 100 mg/kg, po measured at 14 days post administration; format: organism-based; settings: in vivo, 336 h
Mus musculus [8] = experiment: In vivo antioxidant activity in Swiss albino mouse brain assessed as increase in GSH level at 5 mg/kg, ip qd pretreated for 1 hr followed by scopolamine addition; format: functional, organism-based
Mus musculus [9] = experiment: Cognitive enhancing effect in Swiss albino mouse assessed as reversal of scopolamine-induced reduction in spontaneous alteration score at 1 mg/kg, ip qd pretreated for 1 hr followed by scopolamine addition by Y-maze test; format: functional, organism-based
[10] = Acute toxicity in Swiss albino mouse up to 100 mg/kg, po measured until 14 days; format: organism-based; settings: in vivo, 336 h
[11] = Acute toxicity in Swiss albino mouse assessed as abnormal behavior at 100 mg/kg, po measured at 14 days post administration; format: organism-based; settings: in vivo, 336 h
[12] = biological target: Acetylcholinesterase (Homo sapiens) (UniProt P22303); experiment: Displacement of Propidium iodide from PAS region of AChE (unknown origin) after 20 hrs by fluorescence assay relative to control; settings: concentration not given here
Mus musculus [13] = experiment: In vivo antioxidant activity in Swiss albino mouse brain assessed as increase in SOD level at 5 mg/kg, ip qd pretreated for 1 hr followed by scopolamine addition measured every 30 secs interval for 2 mins; format: functional, organism-based
Mus musculus [14] = experiment: In vivo antioxidant activity in Swiss albino mouse brain assessed as increase in catalase activity by measuring decrease in H2O2 level at 5 mg/kg, ip qd pretreated for 1 hr followed by scopolamine addition; format: functional, organism-based
Acetylcholinesterase [15] = biological target: T1, Acetylcholinesterase; experiment: Inhibition of Electric eel AChE using acetylthiocholine iodide as substrate after 10 mins measured for every mins by Lineweaver-Burk plot analysis
Mus musculus [16] = experiment: In vivo antioxidant activity in Swiss albino mouse brain assessed as decrease in MDA level at 5 mg/kg, ip qd pretreated for 1 hr followed by scopolamine addition by TBARS assay; format: functional, organism-based
Mus musculus [17] = experiment: In vivo antioxidant activity in Swiss albino mouse brain assessed as decrease in nitric oxide level at 5 mg/kg, ip qd pretreated for 1 hr followed by scopolamine addition by Griess reagent based assay; format: functional, organism-based
[18] = Neurotoxicity in Swiss albino mouse assessed as motor coordination by measuring fall off time at 5 mg/kg, po after 1 hr by rota rod test (reference value: 310.61 +/- 26.64 sec); format: toxicity, organism-based; settings: in vivo
Mus musculus [19] = experiment: Ex vivo inhibition of AChE in Swiss albino mouse brain at 5 mg/kg, ip qd pretreated for 1 hr followed by scopolamine addition using acetylthiocholine iodide as substrate by Ellman's method; format: functional, organism-based
Mus musculus [20] = experiment: Cognitive enhancing effect in Swiss albino mouse assessed as reversal of scopolamine-induced cainophobia behavior by measuring increase in number of novel arm entries at 1 to 20 mg/kg, ip qd pretreated for 1 hr followed by scopolamine addition by Y-maze test; format: functional, organism-based
Mus musculus [21] = experiment: Memory enhancing effect in Swiss albino mouse assessed as reversal of scopolamine-induced reduction in latency time at 1 mg/kg, ip qd pretreated for 1 hr followed by scopolamine addition by passive avoidance test; format: functional, organism-based
Mus musculus [22] = experiment: Memory enhancing effect in Swiss albino mouse assessed as reversal of scopolamine-induced reduction in latency time at 5 mg/kg, ip qd pretreated for 1 hr followed by scopolamine addition by passive avoidance test; format: functional, organism-based

T1 sequence (O42275 whole entry): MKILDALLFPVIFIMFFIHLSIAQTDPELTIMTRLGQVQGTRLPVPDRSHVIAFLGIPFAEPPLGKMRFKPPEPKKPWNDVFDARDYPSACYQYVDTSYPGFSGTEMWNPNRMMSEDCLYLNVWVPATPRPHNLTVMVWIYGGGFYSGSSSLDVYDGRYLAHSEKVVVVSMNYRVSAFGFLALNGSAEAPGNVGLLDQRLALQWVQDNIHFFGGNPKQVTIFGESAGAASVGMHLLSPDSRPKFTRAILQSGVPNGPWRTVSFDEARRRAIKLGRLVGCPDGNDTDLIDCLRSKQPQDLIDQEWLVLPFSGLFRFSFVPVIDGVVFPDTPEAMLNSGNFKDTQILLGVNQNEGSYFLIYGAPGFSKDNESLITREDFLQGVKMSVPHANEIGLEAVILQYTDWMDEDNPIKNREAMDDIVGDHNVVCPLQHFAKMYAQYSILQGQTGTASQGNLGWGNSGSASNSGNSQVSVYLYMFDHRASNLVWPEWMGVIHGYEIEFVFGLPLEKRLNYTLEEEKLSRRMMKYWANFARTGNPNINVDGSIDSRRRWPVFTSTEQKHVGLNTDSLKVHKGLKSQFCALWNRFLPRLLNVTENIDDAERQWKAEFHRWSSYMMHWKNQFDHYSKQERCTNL
Cholinesterase, sequence (P06276 whole entry): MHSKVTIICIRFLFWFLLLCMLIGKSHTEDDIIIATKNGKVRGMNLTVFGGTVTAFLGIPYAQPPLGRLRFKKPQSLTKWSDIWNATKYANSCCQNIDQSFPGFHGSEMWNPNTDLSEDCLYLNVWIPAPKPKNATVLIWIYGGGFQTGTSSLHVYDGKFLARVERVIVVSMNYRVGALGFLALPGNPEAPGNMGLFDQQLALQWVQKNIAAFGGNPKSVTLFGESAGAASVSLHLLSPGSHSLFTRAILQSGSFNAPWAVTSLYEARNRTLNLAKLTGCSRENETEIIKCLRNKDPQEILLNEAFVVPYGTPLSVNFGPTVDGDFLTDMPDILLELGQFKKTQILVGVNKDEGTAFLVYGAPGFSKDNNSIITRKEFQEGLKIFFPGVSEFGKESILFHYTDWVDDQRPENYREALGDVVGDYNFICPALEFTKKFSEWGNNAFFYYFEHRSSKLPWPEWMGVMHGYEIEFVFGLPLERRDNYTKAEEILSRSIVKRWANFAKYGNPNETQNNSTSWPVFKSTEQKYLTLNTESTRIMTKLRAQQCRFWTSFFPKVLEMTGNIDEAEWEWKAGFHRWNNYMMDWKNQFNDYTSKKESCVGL
Acetylcholinesterase (Homo sapiens), sequence (P22303 whole entry): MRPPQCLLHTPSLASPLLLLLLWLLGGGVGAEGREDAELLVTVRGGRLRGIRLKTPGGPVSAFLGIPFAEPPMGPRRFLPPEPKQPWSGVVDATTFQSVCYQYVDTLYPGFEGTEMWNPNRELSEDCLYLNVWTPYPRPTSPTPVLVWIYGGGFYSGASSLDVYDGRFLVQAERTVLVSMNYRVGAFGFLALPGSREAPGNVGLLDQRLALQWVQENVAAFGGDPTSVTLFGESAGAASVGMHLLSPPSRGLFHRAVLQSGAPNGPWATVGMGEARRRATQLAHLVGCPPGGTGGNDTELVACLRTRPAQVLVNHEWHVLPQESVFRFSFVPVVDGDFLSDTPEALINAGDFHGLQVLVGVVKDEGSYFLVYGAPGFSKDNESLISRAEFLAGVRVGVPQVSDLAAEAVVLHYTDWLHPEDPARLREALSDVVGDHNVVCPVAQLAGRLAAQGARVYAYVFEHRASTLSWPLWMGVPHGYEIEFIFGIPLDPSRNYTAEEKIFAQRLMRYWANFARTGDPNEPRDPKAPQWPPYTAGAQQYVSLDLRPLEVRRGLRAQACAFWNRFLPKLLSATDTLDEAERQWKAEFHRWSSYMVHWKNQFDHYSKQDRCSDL

| Compound | Activity [2] [%] | IC50 (Acetylcholinesterase [3]) [µM] | IC50 (Cholinesterase) [µM] | also measured |
| --- | --- | --- | --- | --- |
| Oc1ccc(/C=N/c2ccc(-c3nc4ccccc4o3)cc2)cc1 | 31.8 | 0.94 | 27 | Ratio IC50 [1]: 28.7 |
| Brc1ccc(CNc2ccc(-c3nc4ccccc4o3)cc2)cc1 | 18.5 | 8.44 | > 50 |  |
| OC(CNc1ccccc1)CNc1ccc(-c2nc3ccccc3o2)cc1 (stereo unspecified) | 48.2 | 0.842 | 3.54 | Ratio IC50 [1]: 4.2 |
| O=[N+]([O-])c1ccc(CNc2ccc(-c3nc4ccccc4o3)cc2)cc1 | 22.7 | 24.2 | > 50 |  |
| S=C(Nc1ccc(Cl)cc1)Nc1ccc(-c2nc3ccccc3o2)cc1 | 40 | 12.6 | > 50 |  |
| CC(C)c1ccc(NC(=S)Nc2ccc(-c3nc4ccccc4o3)cc2)cc1 | 42.3 | > 50 | > 50 |  |
| Cc1nnc2n1-c1ccc(Cl)cc1C(c1ccccc1)=NC2 [ALPRAZOLAM] |  |  |  | Papp [4]: 5.4 ×10⁻⁶ cm/s; Papp at 18 h (in vitro): 4.2 ×10⁻⁶ cm/s |
| Oc1ccc(CNc2ccc(-c3nc4ccccc4o3)cc2)cc1 | 39.4 | 0.723 | 4.71 | Ratio IC50 [1]: 6.5 |
| C(=N\c1ccc(-c2nc3ccccc3o2)cc1)/c1ccccc1 | < 10 | > 50 | > 50 |  |
| S=C(Nc1ccccc1)Nc1ccc(-c2nc3ccccc3o2)cc1 | 45.3 | > 50 | > 50 |  |
| OC(CNc1ccc(Br)cc1)CNc1ccc(-c2nc3ccccc3o2)cc1 (stereo unspecified) | 42.4 | 1.31 | > 50 |  |
| CC(C)c1ccc(CNc2ccc(-c3nc4ccccc4o3)cc2)cc1 | 27.5 | > 50 | > 50 |  |
| O=c1cc(-c2ccccc2)c2ccc(NCCCSc3nc4ccccc4o3)cc2o1 |  | 13 |  |  |
| c1ccc(CNc2ccc(-c3nc4ccccc4o3)cc2)cc1 | 24.1 | 7.21 | > 50 |  |
| O=[N+]([O-])c1ccc(NCC(O)CNc2ccc(-c3nc4ccccc4o3)cc2)cc1 (stereo unspecified) | 44.4 | 1.15 | > 50 |  |
| OC(CNc1ccc(Cl)cc1)CNc1ccc(-c2nc3ccccc3o2)cc1 (stereo unspecified) | 49.6 | 0.363 | 2.29 | Ratio IC50 [1]: 6.3; Activity (Mus musculus [5]): Active; Activity (Mus musculus [6]): Active; Activity [7]: Non-Toxic; Activity (Mus musculus [8]): Active; Activity (Mus musculus [9]): inactive; Activity [10]: Non-Toxic; Activity [11]: Non-Toxic; inhibition [12]: 11.2%; Activity (Mus musculus [13]): Active; Activity (Mus musculus [14]): Active; Ki (Acetylcholinesterase [15]): 0.19 µM; Activity (Mus musculus [16]): Active; Papp at 18 h (in vitro): 4.55 ×10⁻⁶ cm/s; Activity (Mus musculus [17]): Active; Time [18]: 298.75 s; inhibition (Mus musculus [19]): Active; Activity (Mus musculus [20]): Active |
| O=C1O[C@H]([C@@H](O)CO)C(O)=C1O | 56.6 |  |  |  |
| O=c1ccc2ccc(OCCCCCSc3nc4ccccc4o3)cc2o1 |  | 25.4 |  |  |
| O=[N+]([O-])c1ccc(NC(=S)Nc2ccc(-c3nc4ccccc4o3)cc2)cc1 | 45.9 | 9.43 | > 50 |  |
| O=[N+]([O-])c1ccc(/C=N/c2ccc(-c3nc4ccccc4o3)cc2)cc1 | < 10 | 1.79 | > 50 |  |
| Clc1ccc(/C=N/c2ccc(-c3nc4ccccc4o3)cc2)cc1 | < 10 | 2.27 | > 50 |  |
| Clc1ccc(CNc2ccc(-c3nc4ccccc4o3)cc2)cc1 | 25.1 | 6.3 | > 50 |  |
| CC(C)c1ccc(/C=N/c2ccc(-c3nc4ccccc4o3)cc2)cc1 | < 10 | > 50 | > 50 |  |
| Oc1ccc(NC(=S)Nc2ccc(-c3nc4ccccc4o3)cc2)cc1 | 50.2 | 0.882 | 27.4 | Ratio IC50 [1]: 31 |
| COc1cc2c(cc1OC)C(=O)C(CC1CCN(Cc3ccccc3)CC1)C2 (stereo unspecified) [DONEPEZIL] | < 10 |  |  | Activity (Mus musculus [21]): Active; Activity (Mus musculus [9]): Active; Time [18]: 167.75 s |
| Oc1ccc(NCC(O)CNc2ccc(-c3nc4ccccc4o3)cc2)cc1 (stereo unspecified) | 50 | 0.807 | 2.74 | Ratio IC50 [1]: 3.4 |
| CC(C)c1ccc(NCC(O)CNc2ccc(-c3nc4ccccc4o3)cc2)cc1 (stereo unspecified) | 39.1 | 8.02 | > 50 | Activity (Mus musculus [22]): Active |
| S=C(Nc1ccc(Br)cc1)Nc1ccc(-c2nc3ccccc3o2)cc1 | 43.1 | 8.72 | > 50 |  |
| CN(C)C(=O)Oc1ccccc1-c1nc2ccccc2o1 |  | 58.2 |  |  |
| Brc1ccc(/C=N/c2ccc(-c3nc4ccccc4o3)cc2)cc1 | < 10 | 37.3 | > 50 |  |

From ChEMBL document CHEMBL4330060, “Design and development of some phenyl benzoxazole derivatives as a potent acetylcholinesterase inhibitor with antioxidant property to enhance learning and memory” (Eur J Med Chem, 2019)
